The text below walks through data of US20220362153A1, “COMPOSITIONS AND METHODS FOR PULMONARY SURFACTANT-BIOMIMETIC NANOPARTICLES” (priority 2019, published 2022).

For the test, the system named is rgVN04 H5N1 virus. Also on record: species or system mice. The conditions noted are these: mouse, in vivo.

As for cholera toxin [CT], the “early protection by VN04 H5N1 vaccine combined with adjuvant” value is “did not provide any early protection”.
